ChEMBL document CHEMBL1955794, “β-Carboline alkaloids from the leaves of Trigonostemon lii Y.T. Chang” (Bioorg Med Chem Lett, 2012)

Experiments:
Assay type in all cases: functional, cell-based
[1] = system: A549; experiment: Cytotoxicity against human A549 cells after 48 hrs by MTT assay; conditions: A549, 48 h
[2] = system: HL-60; experiment: Cytotoxicity against human HL60 cells after 48 hrs by MTT assay; conditions: HL-60, 48 h
[3] = system: SW480; experiment: Cytotoxicity against human SW480 cells after 48 hrs by MTT assay; conditions: SW480, 48 h
[4] = system: MCF7; experiment: Cytotoxicity against human MCF7 cells after 48 hrs by MTT assay; conditions: MCF7, 48 h
[5] = system: SMMC-7721; experiment: Cytotoxicity against human SMMC7721 cells after 48 hrs by MTT assay; conditions: SMMC-7721, 48 h

Structure (SMILES): COc1ccc2c(-c3nc(O)cc4c3[nH]c3ccccc34)ccnc2c1 [TRIGONOSTEMINE F]
- IC50 [1]: > 40 µM
- IC50 [2]: > 40 µM
- IC50 [3]: > 40 µM
- IC50 [4]: > 40 µM
- IC50 [5]: > 40 µM

Structure (SMILES): COC(=O)c1nccc2c1[nH]c1cc(OC)ccc12 [HARMIC ACID METHYL ESTER]
- IC50 [1]: > 40 µM
- IC50 [2]: > 40 µM
- IC50 [3]: > 40 µM
- IC50 [4]: > 40 µM
- IC50 [5]: > 40 µM

Structure (SMILES): COc1ccc2c(c1)[nH]c1c(C(=O)c3c[nH]c4ccccc34)nccc12 [TRIGONOSTEMINE A]
- IC50 [1]: 23.9 µM
- IC50 [2]: 13.4 µM
- IC50 [3]: 4.86 µM
- IC50 [4]: 5.3 µM
- IC50 [5]: 22.4 µM

Structure (SMILES): COc1ccc2c(c1)[nH]c1c(-c3ccnc4ccccc34)nccc12 [TRIGONOSTEMONINE C]
- IC50 [1]: 23.1 µM
- IC50 [2]: 13.4 µM
- IC50 [3]: > 40 µM
- IC50 [4]: > 40 µM
- IC50 [5]: 15.5 µM

Structure (SMILES): COc1ccc2c(c1)[nH]c1c(C(C)=O)nccc12 [ARENARINE C]
- IC50 [1]: > 40 µM
- IC50 [2]: > 40 µM
- IC50 [3]: > 40 µM
- IC50 [4]: > 40 µM
- IC50 [5]: > 40 µM

Structure (SMILES): COc1ccc2c(c1)[nH]c1c(C(=O)c3c(O)[nH]c4ccccc34)nccc12 [TRIGONOSTEMINE C]
- IC50 [1]: 18.5 µM
- IC50 [2]: > 40 µM
- IC50 [3]: 17.2 µM
- IC50 [4]: 16.1 µM
- IC50 [5]: 16 µM

Structure (SMILES): COc1ccc2c(-c3nccc4c3[nH]c3ccccc34)ccnc2c1 [TRIGONOSTEMONINE D]
- IC50 [1]: > 40 µM
- IC50 [2]: > 40 µM
- IC50 [3]: > 40 µM
- IC50 [4]: > 40 µM
- IC50 [5]: > 40 µM

Structure (SMILES): COc1ccc2c(C(=O)c3nccc4c3[nH]c3cc(OC)ccc34)c[nH]c2c1 [TRIGONOSTEMINE B]
- IC50 [1]: 8.67 µM
- IC50 [2]: > 40 µM
- IC50 [3]: 3.55 µM
- IC50 [4]: 2.98 µM
- IC50 [5]: 4.78 µM

Structure (SMILES): COc1ccc2c(C(=O)c3nccc4c3[nH]c3ccccc34)c(O)[nH]c2c1 [TRIGONOSTEMINE D]
- IC50 [1]: > 40 µM
- IC50 [2]: > 40 µM
- IC50 [3]: > 40 µM
- IC50 [4]: 13.8 µM
- IC50 [5]: > 40 µM

Structure (SMILES): COc1ccc2c(c1)[nH]c1c(-c3ccnc4ccccc34)nc(O)cc12 [TRIGONOSTEMINE E]
- IC50 [1]: 24.3 µM
- IC50 [2]: 18.8 µM
- IC50 [3]: 39.1 µM
- IC50 [4]: 14.4 µM
- IC50 [5]: 23.5 µM

Structure (SMILES): O=C1NCCc2c1[nH]c1ccccc21
- IC50 [1]: > 40 µM
- IC50 [2]: > 40 µM
- IC50 [3]: > 40 µM
- IC50 [4]: > 40 µM
- IC50 [5]: > 40 µM

Structure (SMILES): COc1ccc2c3c([nH]c2c1)-c1nc2ccccc2c(=O)n1CC3
- IC50 [1]: > 40 µM
- IC50 [2]: > 40 µM
- IC50 [3]: > 40 µM
- IC50 [4]: > 40 µM
- IC50 [5]: > 40 µM

Structure (SMILES): COc1ccc2c(=O)n3c(nc2c1)-c1[nH]c2ccccc2c1CC3
- IC50 [1]: > 40 µM
- IC50 [2]: > 40 µM
- IC50 [3]: > 40 µM
- IC50 [4]: > 40 µM
- IC50 [5]: > 40 µM

Structure (SMILES): COc1ccc2c(C3=NCCc4c3[nH]c3ccccc43)ccnc2c1 [TRIGONOSTEMONINE E]
- IC50 [1]: > 40 µM
- IC50 [2]: > 40 µM
- IC50 [3]: > 40 µM
- IC50 [4]: > 40 µM
- IC50 [5]: > 40 µM
